System: Meloidogyne incognita
Assay: 96-well microplate bioassay of nematicidal activity of culture filtrates on Meloidogyne spp. larva suspension
Settings: 1 μg/mL, control drug, after 3 days
Protocol: To select filamentous fungi having an excellent nematicidal activity, the present inventors have received 61 culture filtrates of filamentous fungi to screen their nematicidal activities. Specifically, roots of a tomato plant infected with Meloidogyne spp. were washed with running water to remove foreign substances. Thereafter, the well-washed roots were cut into pieces at intervals of 1 cm or less, and put into a blender. Then, a 0.5% sodium hypochlorite solution was added at such an amount that the roots were immersed, and the roots were ground for one minute. Subsequently, the ground roots were filtered through a 65 μm sieve to remove root debris, and the eggs passed through the sieve were collected through a 25 μm sieve, and then washed with sterilized water several times. A concentration of the collected Meloidogyne spp. eggs was measured using a stereoscopic microscope.
The nematicidal activities of the culture filtrates of the 61 fungi were screened using a 96-well microplate bioassay. 45 μL of a Meloidogyne spp. larva suspension, which includes approximately 50 larvae, was added to each of holes, and then treated with a 10% culture filtrate. After 3 days of the sample treatment, the nematicidal activity was determined using the following equation. […]

For abamectin, the nematicidal activity was 95%.
